Activity calls are given as the source filed them. No cut-off for these calls is given here.
Key:
[1] = biological target: T1, Histone deacetylase 8 (Homo sapiens) (UniProt Q9BY41); experiment: Inhibition of recombinant HDAC8 (unknown origin) at > 10 uM using Bos-Lys(TFA)-AMC as substrate preincubated with compound for 5 mins and measured after 90 mins by NOVOstar microplate reader analysis relative to control; settings: time 95.0 min
T1 sequence (whole entry): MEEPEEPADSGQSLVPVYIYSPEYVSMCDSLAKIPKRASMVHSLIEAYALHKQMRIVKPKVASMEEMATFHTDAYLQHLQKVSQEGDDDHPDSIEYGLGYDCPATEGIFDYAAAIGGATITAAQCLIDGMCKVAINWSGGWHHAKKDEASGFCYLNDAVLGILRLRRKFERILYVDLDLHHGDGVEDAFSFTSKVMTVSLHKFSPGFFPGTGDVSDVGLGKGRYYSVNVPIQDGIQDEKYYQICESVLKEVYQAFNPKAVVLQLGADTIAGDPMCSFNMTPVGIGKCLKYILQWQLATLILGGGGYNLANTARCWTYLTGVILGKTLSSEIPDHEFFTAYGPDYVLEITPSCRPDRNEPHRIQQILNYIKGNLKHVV

[2] = biological target: T2, Protein deacetylase HDAC6 (Homo sapiens) (UniProt Q9UBN7); experiment: (§1) Inhibition of N-terminal GST-tagged full length recombinant human HDAC6 (1 to 1215 end residues) expressed in sf9 cells at 10 uM using ZMAL (Z-Lys(Ac)-AMC as fluorogenic substrate preincubated with compound for 60 mins followed by substrate addition and measured after 90 mins by fluorescence based microplate reader analysis relative to control; settings: time 150.0 min
T2 sequence (whole entry): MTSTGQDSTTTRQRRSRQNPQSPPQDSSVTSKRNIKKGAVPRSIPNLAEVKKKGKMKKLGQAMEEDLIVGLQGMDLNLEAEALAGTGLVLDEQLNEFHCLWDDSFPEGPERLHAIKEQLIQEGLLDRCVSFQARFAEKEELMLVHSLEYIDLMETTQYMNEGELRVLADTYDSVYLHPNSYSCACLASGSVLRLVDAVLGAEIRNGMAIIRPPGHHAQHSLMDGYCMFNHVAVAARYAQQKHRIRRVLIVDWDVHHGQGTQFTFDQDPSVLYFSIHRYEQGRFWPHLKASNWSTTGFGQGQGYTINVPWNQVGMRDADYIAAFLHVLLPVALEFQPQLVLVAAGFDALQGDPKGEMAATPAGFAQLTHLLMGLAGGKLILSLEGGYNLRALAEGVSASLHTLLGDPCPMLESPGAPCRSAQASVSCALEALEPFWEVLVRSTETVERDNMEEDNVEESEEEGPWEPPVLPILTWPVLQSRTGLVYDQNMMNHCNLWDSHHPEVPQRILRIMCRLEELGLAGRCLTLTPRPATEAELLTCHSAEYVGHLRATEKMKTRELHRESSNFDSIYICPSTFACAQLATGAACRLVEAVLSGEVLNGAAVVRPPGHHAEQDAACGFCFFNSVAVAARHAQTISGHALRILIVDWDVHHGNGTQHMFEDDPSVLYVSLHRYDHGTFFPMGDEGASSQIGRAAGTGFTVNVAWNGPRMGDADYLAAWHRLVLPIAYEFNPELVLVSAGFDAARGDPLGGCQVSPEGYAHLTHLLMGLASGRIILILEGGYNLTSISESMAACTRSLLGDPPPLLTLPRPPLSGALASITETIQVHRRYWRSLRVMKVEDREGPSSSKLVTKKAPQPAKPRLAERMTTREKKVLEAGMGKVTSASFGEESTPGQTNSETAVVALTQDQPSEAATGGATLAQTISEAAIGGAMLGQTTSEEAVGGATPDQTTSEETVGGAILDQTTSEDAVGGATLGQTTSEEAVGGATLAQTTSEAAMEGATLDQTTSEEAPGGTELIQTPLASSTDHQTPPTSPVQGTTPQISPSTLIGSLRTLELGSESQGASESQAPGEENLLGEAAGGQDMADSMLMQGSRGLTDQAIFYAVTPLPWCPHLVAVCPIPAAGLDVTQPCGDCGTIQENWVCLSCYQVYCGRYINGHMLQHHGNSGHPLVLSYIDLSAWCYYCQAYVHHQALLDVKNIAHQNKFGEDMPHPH

[3] = biological target: T3, Histone deacetylase 8 (Homo sapiens, UniProt Q9BY41); experiment: Inhibition of recombinant HDAC8 (unknown origin) using Bos-Lys(TFA)-AMC as substrate preincubated with compound for 5 mins and measured after 90 mins by NOVOstar microplate reader analysis
T3 sequence (Q9BY41 whole entry): T1 sequence (whole entry)

[4] = biological target: Histone deacetylase 1 (Homo sapiens, UniProt Q13547); experiment: as §1, with “C-terminal 6-his/FLAG tagged” for “N-terminal GST-tagged”, “length human” for “length”, “HDAC1” for “human HDAC6”, “482” for “1215”; settings: time 150.0 min
Histone deacetylase 1, sequence (Q13547 whole entry): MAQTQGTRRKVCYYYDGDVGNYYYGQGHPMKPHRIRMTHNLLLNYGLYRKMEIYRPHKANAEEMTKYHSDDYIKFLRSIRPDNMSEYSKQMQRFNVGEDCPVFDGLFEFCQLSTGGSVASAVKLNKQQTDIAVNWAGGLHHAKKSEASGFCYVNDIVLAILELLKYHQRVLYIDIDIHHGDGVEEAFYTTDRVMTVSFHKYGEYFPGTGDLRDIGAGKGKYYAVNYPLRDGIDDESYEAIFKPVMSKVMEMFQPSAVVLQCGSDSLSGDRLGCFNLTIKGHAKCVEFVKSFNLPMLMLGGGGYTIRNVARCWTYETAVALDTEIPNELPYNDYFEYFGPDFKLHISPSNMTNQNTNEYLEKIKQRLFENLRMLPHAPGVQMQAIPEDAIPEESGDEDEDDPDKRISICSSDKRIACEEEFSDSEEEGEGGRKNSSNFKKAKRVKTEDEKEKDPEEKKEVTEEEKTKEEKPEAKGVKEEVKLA

[5] = biological target: Histone deacetylase 2 (Homo sapiens) (UniProt Q92769); experiment: as §1, with “C-terminal FLAG tagged” for “N-terminal GST-tagged”, “length human” for “length”, “HDAC2” for “human HDAC6”, “488” for “1215”; settings: time 150.0 min
Histone deacetylase 2 (Homo sapiens), sequence (Q92769 whole entry): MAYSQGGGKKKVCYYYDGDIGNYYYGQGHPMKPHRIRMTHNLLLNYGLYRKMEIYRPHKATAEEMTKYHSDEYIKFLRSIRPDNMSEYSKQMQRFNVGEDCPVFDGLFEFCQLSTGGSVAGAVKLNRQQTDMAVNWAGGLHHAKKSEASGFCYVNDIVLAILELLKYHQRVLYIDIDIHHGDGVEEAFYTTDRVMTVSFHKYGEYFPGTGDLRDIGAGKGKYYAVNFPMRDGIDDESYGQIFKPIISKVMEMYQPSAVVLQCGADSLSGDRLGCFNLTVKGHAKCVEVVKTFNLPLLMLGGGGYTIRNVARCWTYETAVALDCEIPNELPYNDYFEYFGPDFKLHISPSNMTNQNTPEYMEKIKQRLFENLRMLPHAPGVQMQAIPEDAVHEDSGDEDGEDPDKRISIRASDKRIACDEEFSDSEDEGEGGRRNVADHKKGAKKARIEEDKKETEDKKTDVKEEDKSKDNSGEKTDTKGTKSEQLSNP

[6] = biological target: T4, Histone deacetylase 3/Nuclear receptor corepressor 2 (HDAC3/NCoR2) (Homo sapiens) (UniProt O15379+Q9Y618); experiment: as §1, with “C-terminal His tagged human” for “N-terminal GST-tagged full length”, “HDAC3” for “human HDAC6”, “428” for “1215”, “residues)/N-terminal GST-tagged human NcoR2” for “residues)”; settings: time 150.0 min
[7] = biological target: Histone deacetylase 4 (Homo sapiens, UniProt P56524); experiment: Inhibition of recombinant HDAC4 (unknown origin) using Bos-Lys(TFA)-AMC as substrate preincubated with compound for 5 mins and measured after 90 mins by NOVOstar microplate reader analysis
Histone deacetylase 4, sequence (P56524 whole entry): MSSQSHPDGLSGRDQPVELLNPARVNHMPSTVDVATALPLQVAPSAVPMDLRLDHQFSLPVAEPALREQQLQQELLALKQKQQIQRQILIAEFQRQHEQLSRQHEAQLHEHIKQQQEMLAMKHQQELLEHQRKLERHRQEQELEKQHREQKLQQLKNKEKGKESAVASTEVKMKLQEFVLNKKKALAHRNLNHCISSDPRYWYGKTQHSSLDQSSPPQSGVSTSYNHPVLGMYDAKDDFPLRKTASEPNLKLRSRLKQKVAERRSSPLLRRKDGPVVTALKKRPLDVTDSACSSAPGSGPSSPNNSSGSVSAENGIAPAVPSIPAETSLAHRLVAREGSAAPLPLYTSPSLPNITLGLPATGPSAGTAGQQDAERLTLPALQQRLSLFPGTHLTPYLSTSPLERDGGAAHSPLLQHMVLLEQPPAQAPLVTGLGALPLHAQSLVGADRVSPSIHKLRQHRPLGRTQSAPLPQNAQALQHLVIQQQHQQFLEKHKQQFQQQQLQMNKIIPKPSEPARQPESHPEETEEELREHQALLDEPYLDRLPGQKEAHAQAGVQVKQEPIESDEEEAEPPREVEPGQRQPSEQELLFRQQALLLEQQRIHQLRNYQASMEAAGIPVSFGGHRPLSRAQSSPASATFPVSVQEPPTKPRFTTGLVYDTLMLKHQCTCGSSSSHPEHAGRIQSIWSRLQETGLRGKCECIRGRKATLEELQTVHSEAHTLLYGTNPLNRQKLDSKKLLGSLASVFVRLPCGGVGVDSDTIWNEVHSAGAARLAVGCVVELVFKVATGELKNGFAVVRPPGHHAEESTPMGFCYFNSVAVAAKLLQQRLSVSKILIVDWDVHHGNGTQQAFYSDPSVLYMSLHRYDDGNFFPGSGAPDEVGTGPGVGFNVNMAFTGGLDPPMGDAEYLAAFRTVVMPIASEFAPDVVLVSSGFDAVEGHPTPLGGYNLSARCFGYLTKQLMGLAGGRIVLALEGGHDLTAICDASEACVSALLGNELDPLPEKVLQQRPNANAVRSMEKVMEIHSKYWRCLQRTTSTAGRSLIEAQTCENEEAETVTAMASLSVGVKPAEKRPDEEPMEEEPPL

[8] = tested on: A2780; experiment: Cytotoxicity against human A2780 cells at < 100 uM assessed as reduction in cell viability incubated for 72 hrs by MTT assay; assay type: functional, cell-based
[9] = tested on: A2780cisR; experiment: Cytotoxicity against cisplatin resistant human A2780 cisR cells at < 100 uM assessed as reduction in cell viability incubated for 72 hrs by MTT assay; assay type: functional, cell-based
[10] = tested on: Cal27CisR; experiment: Cytotoxicity against cisplatin resistant human Cal27CisR cells at < 10 uM assessed as reduction in cell viability incubated for 72 hrs by MTT assay; assay type: functional, cell-based
[11] = cells; settings: Homo sapiens, A2780
[12] = cells; settings: Homo sapiens, A2780cisR
[13] = cells; settings: Homo sapiens, CAL-27
[14] = cells; settings: Homo sapiens, Cal27CisR
[15] = tested on: CAL-27; experiment: cells; settings: Homo sapiens, CAL-27, 72 h
[16] = biological target: T5, Protein deacetylase HDAC6 (Homo sapiens, UniProt Q9UBN7); experiment: as §1, with “cells” for “cells at 10 uM”, “analysis” for “analysis relative to control”
T5 sequence (Q9UBN7 whole entry): T2 sequence (whole entry)

[17] = biological target: Histone deacetylase 3/Nuclear receptor corepressor 2 (HDAC3/NCoR2) (Homo sapiens, UniProt O15379); assay type: cell-based, Sf9
Histone deacetylase 3/Nuclear receptor corepressor 2 (HDAC3/NCoR2), sequence (O15379 whole entry): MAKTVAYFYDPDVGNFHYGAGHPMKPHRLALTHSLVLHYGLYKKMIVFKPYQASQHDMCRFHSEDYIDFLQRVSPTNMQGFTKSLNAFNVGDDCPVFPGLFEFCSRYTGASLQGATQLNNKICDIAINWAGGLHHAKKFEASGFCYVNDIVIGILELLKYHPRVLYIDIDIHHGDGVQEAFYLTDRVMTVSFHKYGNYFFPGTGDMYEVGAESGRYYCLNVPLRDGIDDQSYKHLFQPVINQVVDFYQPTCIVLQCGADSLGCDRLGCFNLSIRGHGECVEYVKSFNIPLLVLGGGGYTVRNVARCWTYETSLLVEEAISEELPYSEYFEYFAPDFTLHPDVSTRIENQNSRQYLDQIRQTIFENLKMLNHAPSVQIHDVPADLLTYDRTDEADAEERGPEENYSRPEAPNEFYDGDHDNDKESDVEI
Histone deacetylase 3/Nuclear receptor corepressor 2 (HDAC3/NCoR2), sequence (Q9Y618 whole entry, further chain): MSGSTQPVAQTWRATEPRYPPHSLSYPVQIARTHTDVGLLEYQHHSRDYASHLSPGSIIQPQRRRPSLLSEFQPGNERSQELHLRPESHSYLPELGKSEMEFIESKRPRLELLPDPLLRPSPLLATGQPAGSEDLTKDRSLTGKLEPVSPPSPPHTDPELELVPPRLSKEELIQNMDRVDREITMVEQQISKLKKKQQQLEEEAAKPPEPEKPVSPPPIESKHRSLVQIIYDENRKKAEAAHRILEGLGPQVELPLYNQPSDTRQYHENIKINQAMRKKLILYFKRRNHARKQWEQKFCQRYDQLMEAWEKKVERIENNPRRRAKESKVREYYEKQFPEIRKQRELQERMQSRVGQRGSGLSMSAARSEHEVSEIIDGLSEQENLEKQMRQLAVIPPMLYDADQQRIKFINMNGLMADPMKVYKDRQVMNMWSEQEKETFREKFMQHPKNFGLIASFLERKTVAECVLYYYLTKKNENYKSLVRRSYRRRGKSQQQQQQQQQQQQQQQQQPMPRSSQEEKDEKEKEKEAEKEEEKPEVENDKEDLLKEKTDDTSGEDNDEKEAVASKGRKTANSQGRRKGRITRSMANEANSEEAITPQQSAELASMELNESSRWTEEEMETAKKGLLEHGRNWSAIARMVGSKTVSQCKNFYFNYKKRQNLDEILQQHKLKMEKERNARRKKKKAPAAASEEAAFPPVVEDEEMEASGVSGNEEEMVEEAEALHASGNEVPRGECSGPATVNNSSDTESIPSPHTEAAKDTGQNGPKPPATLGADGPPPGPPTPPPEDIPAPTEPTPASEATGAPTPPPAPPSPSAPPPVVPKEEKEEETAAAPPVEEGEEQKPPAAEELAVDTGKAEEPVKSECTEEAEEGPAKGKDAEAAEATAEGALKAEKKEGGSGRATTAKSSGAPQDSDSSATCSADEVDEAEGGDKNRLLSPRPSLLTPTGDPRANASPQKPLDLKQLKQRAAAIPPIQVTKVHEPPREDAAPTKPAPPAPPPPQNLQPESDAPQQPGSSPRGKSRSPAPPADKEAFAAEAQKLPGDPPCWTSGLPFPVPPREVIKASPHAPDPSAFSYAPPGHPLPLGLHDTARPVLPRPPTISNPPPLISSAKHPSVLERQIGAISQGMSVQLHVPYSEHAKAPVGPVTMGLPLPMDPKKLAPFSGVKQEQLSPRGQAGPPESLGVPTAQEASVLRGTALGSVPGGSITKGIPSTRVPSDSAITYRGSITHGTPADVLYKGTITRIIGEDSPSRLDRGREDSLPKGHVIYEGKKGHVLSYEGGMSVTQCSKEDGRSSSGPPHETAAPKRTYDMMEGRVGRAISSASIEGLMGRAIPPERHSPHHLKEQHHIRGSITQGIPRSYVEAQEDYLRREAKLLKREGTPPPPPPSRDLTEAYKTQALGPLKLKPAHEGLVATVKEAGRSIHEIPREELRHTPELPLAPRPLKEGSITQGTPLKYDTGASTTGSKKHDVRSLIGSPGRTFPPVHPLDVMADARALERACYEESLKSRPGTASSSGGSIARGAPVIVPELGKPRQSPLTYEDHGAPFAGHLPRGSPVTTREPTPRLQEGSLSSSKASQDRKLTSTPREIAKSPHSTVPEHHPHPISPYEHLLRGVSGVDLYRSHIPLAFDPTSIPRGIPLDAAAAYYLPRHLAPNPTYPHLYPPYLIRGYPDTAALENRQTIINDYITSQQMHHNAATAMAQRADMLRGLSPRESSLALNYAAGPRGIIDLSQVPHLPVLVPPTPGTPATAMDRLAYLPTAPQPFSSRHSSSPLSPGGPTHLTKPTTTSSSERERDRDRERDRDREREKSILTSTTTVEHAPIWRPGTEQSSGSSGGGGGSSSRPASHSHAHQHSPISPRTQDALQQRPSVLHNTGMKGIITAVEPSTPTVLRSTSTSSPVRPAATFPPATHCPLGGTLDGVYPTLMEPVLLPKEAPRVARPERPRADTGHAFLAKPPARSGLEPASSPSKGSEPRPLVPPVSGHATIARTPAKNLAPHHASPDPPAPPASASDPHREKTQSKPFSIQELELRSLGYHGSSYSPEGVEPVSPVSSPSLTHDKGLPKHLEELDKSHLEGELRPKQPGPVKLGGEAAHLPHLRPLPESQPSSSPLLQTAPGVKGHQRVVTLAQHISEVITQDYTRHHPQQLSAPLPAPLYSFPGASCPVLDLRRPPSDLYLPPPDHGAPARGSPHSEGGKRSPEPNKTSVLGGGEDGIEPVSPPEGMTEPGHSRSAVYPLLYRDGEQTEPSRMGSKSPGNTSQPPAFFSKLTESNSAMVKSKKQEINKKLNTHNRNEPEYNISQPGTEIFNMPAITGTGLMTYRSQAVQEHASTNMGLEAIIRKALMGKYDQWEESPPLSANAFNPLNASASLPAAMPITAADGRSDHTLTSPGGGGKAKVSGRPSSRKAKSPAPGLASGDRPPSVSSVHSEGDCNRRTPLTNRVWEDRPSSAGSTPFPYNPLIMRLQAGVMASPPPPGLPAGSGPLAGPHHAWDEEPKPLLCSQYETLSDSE

[18] = biological target: T2, Protein deacetylase HDAC6 (Homo sapiens); experiment: as §1, with “> 3.33” for “10”
[19] = tested on: A2780; experiment: cells; settings: Homo sapiens, A2780, 72 h
[20] = tested on: A2780cisR; experiment: cells; settings: Homo sapiens, 72 h
[21] = cells; settings: Homo sapiens, Cal27CisR, 72 h
[22] = cells; settings: Homo sapiens, A2780; remark: listed apart in the source
[23] = cells; settings: Homo sapiens, A2780cisR; remark: listed apart in the source
[24] = cells; settings: Homo sapiens, CAL-27; remark: listed apart in the source
[25] = cells; settings: Homo sapiens, Cal27CisR; remark: listed apart in the source
[26] = biological target: T2, Protein deacetylase HDAC6 (Homo sapiens); experiment: as §1, with “cells at > 10 uM” for “cells at 10 uM”; settings: time 150.0 min
[27] = biological target: T4, Histone deacetylase 3/Nuclear receptor corepressor 2 (HDAC3/NCoR2) (Homo sapiens); experiment: Inhibition of C-terminal His tagged human recombinant HDAC3 (1 to 428 end residues)/N-terminal GST-tagged human NcoR2 expressed in sf9 cells at > 10 uM using ZMAL (Z-Lys(Ac)-AMC as fluorogenic substrate preincubated with compound for 60 mins followed by substrate addition and measured after 90 mins by fluorescence based microplate reader analysis relative to control; settings: time 150.0 min
[28] = tested on: A2780; experiment: Inhibition of class I/6 HDAC (unknown origin) in human A2780 cells at < 100 uM using Boc-Lys(epsilon-Ac)-AMC as substrate preincubated with compound for 18 hrs followed by substrate addition and measured after 3 hrs by NOVOstar microplate reader analysis; assay type: cell-based
[29] = tested on: A2780 cisR; experiment: Inhibition of class I/6 HDAC (unknown origin) in cisplatin resistant human A2780 cisR cells at < 100 uM using Boc-Lys(epsilon-Ac)-AMC as substrate preincubated with compound for 18 hrs followed by substrate addition and measured after 3 hrs by NOVOstar microplate reader analysis; assay type: cell-based
[30] = tested on: CAL-27; experiment: Cytotoxicity against human CAL-27 cells at < 100 uM assessed as reduction in cell viability incubated for 72 hrs by MTT assay; assay type: functional, cell-based

Row | SMILES | inhibition [1] [%] | IC50 [3] [µM] | IC50 [7] [µM] | IC50 [11] [µM] | IC50 [12] [µM] | IC50 [13] [µM] | IC50 [14] [µM] | IC50 [15] [µM] | IC50 [16] [µM] | IC50 [17] [µM] | IC50 [19] [µM] | IC50 [20] [µM] | IC50 [21] [µM] | inhibition [26] [%] | Activity [9] | Activity [10] | other results
1 | CN(C)c1ccc(C(=O)N(CC(=O)NCc2ccccc2)Cc2ccc(C(=O)Nc3ccccc3N)cc2)cc1 | – | > 10 | > 10 | 1.22 | 1.63 | 0.327 | 0.491 | 2 | > 10 | – | 4.33 | 8.28 | 2.63 | – | – | – | IC50 [22]: 49.8 µM; IC50 [23]: 47.6 µM; IC50 [24]: 9.34 µM; IC50 [25]: 6.47 µM
2 | CC(C)CCNNC(=O)c1ccc(CN(CC(=O)NCc2ccccc2)C(=O)c2ccc(N(C)C)cc2)cc1 | – | – | > 10 | 2.91 | 2.08 | 0.83 | 0.931 | 3.41 | > 10 | 0.199 | 4.94 | 15.8 | 8.5 | < 25 | – | – | –
3 | CN(C)c1ccc(C(=O)N(CC(=O)NCc2ccccc2)Cc2ccc(C(=O)NNCCC(C)(C)C)cc2)cc1 | < 25 | > 10 | > 10 | – | – | 83.4 | 43.6 | – | > 10 | > 10 | 70.2 | – | – | < 25 | inactive | inactive | inhibition [4]: 63%; inhibition [5]: 46%; inhibition [27]: < 25%; inhibition [28]: inactive; inhibition [29]: inactive; Activity [30]: inactive
4 | CN(C)c1ccc(C(=O)N(CC(=O)NCc2ccccc2)Cc2ccc(C(=O)NNc3ccccc3)cc2)cc1 | < 25 | > 10 | > 10 | 27.7 | 36 | 21.5 | 24.3 | 60.8 | > 10 | 3.82 | – | – | – | < 25 | inactive | inactive | Activity [8]: inactive

Further lines, with some results ahead:

Row | inhibition [1] [%] | IC50 [3] [µM] | IC50 [7] [µM] | IC50 [11] [µM] | IC50 [12] [µM] | IC50 [13] [µM] | IC50 [14] [µM] | IC50 [15] [µM] | IC50 [16] [µM] | IC50 [17] [µM] | IC50 [19] [µM] | IC50 [20] [µM] | IC50 [21] [µM] | inhibition [26] [%] | SMILES | Activity [9] | Activity [10] | other results
5 | < 25 | > 10 | > 10 | 33.1 | 37.7 | 30.9 | 35.9 | 63.5 | – | – | – | – | – | – | CN(C)c1ccc(C(=O)N(CC(=O)NCc2ccccc2)Cc2ccc(C(=O)NN)cc2)cc1 | inactive | inactive | inhibition [2]: 55%; inhibition [4]: 62%; inhibition [5]: 53%; inhibition [6]: 57%; Activity [8]: inactive
6 | – | – | > 10 | 2.21 | 2.97 | 2.46 | 1.96 | 10.3 | > 10 | 1.2 | 5.9 | 35.5 | 21.6 | – | CN(C)c1ccc(C(=O)N(CC(=O)NCc2ccccc2)Cc2ccc(C(=O)NNCCCc3ccccc3)cc2)cc1 | – | – | inhibition [18]: < 25%
7 | – | – | > 10 | 0.722 | 0.974 | 0.388 | 0.392 | 1.99 | > 10 | – | 2.61 | 9.08 | 2.67 | < 25 | CN(C)c1ccc(C(=O)N(CC(=O)NCc2ccccc2)Cc2ccc(C(=O)NNCC3CC3)cc2)cc1 | – | – | IC50 [22]: 8.56 µM; IC50 [23]: 11.9 µM; IC50 [24]: 2.97 µM; IC50 [25]: 1.28 µM
8 | < 25 | > 10 | > 10 | 0.691 | 0.91 | 0.379 | 0.385 | 2.2 | > 10 | 0.037 | 2.25 | 8.05 | 3.14 | < 25 | CN(C)c1ccc(C(=O)N(CC(=O)NCc2ccccc2)Cc2ccc(C(=O)NNCCC(F)(F)F)cc2)cc1 | – | – | –
9 | – | – | > 10 | 0.273 | 0.334 | 0.264 | 0.218 | 0.843 | > 3.33 | 0.072 | 0.675 | 3.38 | 1.5 | – | CCCCCNNC(=O)c1ccc(CN(CC(=O)NCc2ccccc2)C(=O)c2ccc(N(C)C)cc2)cc1 | – | – | inhibition [18]: < 25%
